Experimental findings from the supplement of paper PMC10307832 are described below.

Common to all, as to assay: relative viability (nuclei count vs DMSO), 5 days (fraction); higher = more cells survive
Compound in the experiment “Cediranib + Foretinib”: COc1cc2c(Oc3ccc4[nH]c(C)cc4c3F)ncnc2cc1OCCCN1CCCC1 [Cediranib] + COc1cc2c(Oc3ccc(NC(=O)C4(C(=O)Nc5ccc(F)cc5)CC4)cc3F)ccnc2cc1OCCCN1CCOCC1 [Foretinib] (partner 0.25 µM)
The method in brief: (§1)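 Lung cancer cell lines, seeded in 1536-well plates, were treated the following day by pin tool with a single drug or with five library-drug doses (not always all listed) in √10 steps on top of a fixed anchor-drug dose. Cells were fixed and nuclei stained in one step after 5 days, and nuclei were counted. Relative viability is the nuclei count for treated wells divided by that for vehicle wells, reported as medians of duplicate plates.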

Compound in the experiment “Cediranib + Crizotinib”: COc1cc2c(Oc3ccc4[nH]c(C)cc4c3F)ncnc2cc1OCCCN1CCCC1 [Cediranib] + C[C@@H](Oc1cc(-c2cnn(C3CCNCC3)c2)cnc1N)c1c(Cl)ccc(F)c1Cl [Crizotinib] (partner 1 µM)
A digest of the protocol:
as §1

Compound in the experiment “Halofuginone + Lapatinib”: O=C(C[C@H]1NCCC[C@@H]1O)Cn1cnc2cc(Br)c(Cl)cc2c1=O (racemic) [Halofuginone] + CS(=O)(=O)CCNCc1ccc(-c2ccc3ncnc(Nc4ccc(OCc5cccc(F)c5)c(Cl)c4)c3c2)o1 [Lapatinib] (partner 2 µM)
The method in brief: as §1

Compound in the experiment “Halofuginone + Alpelisib”: O=C(C[C@H]1NCCC[C@@H]1O)Cn1cnc2cc(Br)c(Cl)cc2c1=O (racemic) [Halofuginone] + Cc1nc(NC(=O)N2CCC[C@H]2C(N)=O)sc1-c1ccnc(C(C)(C)C(F)(F)F)c1 [Alpelisib] (partner 2 µM)
The method in brief: as §1

Regarding UMC-11, the relative viability with Cediranib + Foretinib (first compound 0.04 µM) is 1.1; with Cediranib + Foretinib (first compound 0.4 µM) it was 1.03; in the experiment with Cediranib + Foretinib (first compound 4 µM) it was 1.05; in the experiment with Cediranib + Crizotinib (first compound 0.04 µM) it was 0.612; with Cediranib + Crizotinib (first compound 0.1265 µM), 0.573; with Cediranib + Crizotinib (first compound 0.4 µM) it was 0.512. Also, the relative viability was 0.656 with Cediranib + Crizotinib (first compound 1.265 µM); 0.427 with Cediranib + Crizotinib (first compound 4 µM); 1.02 with Halofuginone + Lapatinib (first compound 0.001 µM); 0.997 in the experiment with Halofuginone + Lapatinib (first compound 0.003162 µM); 0.889 in the experiment with Halofuginone + Lapatinib (first compound 0.01 µM); 0.924 in the experiment with Halofuginone + Lapatinib (first compound 0.03162 µM). Further, the relative viability came out at 0.7 with Halofuginone + Lapatinib (first compound 0.1 µM); 1.04 with Halofuginone + Alpelisib (first compound 0.001 µM); 0.909 with Halofuginone + Alpelisib (first compound 0.003162 µM); 0.989 with Halofuginone + Alpelisib (first compound 0.01 µM); 0.885 with Halofuginone + Alpelisib (first compound 0.03162 µM); 0.457 with Halofuginone + Alpelisib (first compound 0.1 µM).
